Where two headings read alike, the source gives them in different places.
What was measured:
[1] = physchem; conditions: LogPA
[2] = test system: Alternaria solani; test: Example M: in vivo test on Alternaria solani (leaf blotch disease/tomato/protective); conditions: 168 h, tomato, protective, 500 ppm active substance, assessed 7 days after inoculation, read-out: % Wirkungsgrad (activity level)
Procedure: Solvent: 49 parts by weight N,N-dimethylformamide Emulsifier: 1 part by weight alkylaryl polyglycol ethers For the preparation of a suitable active substance preparation, 1 part by weight of active substance is mixed with the stated quantities of solvent and emulsifier and the concentrate is diluted to the desired concentration with water. For the testing for protective activity, young tomato plants are sprayed with the active substance preparation at the stated application dosage. […] 7 days after the inoculation, the assessment takes place.

[3] = test system: Sphaerotheca fuliginea; test: Example L: in vivo test on Sphaerotheca fuliginea (powdery mildew on cucumber/protective); conditions: Podosphaera fuliginea, 168 h, cucumber, protective, assessment 7 days after inoculation, read-out: % Wirkungsgrad
Procedure: Solvent: 49 parts by weight N,N-dimethylformamide Emulsifier: 1 part by weight alkylaryl polyglycol ethers For the preparation of a suitable active substance preparation, 1 part by weight of active substance is mixed with the stated quantities of solvent and emulsifier and the concentrate is diluted to the desired concentration with water. For the testing for protective activity, young cucumber plants are sprayed with the active substance preparation at the stated application dosage. One day after the treatment, the plants are inoculated with a spore suspension of Sphaerotheca fuliginea. Next, the plants are placed in a greenhouse at 70% relative atmospheric humidity and a temperature of 23° C. 7 days after the inoculation, the assessment takes place.

[4] = test system: Fusarium graminearum; test: microbe, parasite or virus in culture; type: cell-based
[5] = test system: Fusarium proliferatum; test: Example I: production of fumonisin FB1 by Fusarium proliferatum (microtitre plates); type: cell-based; conditions: 120 h
[6] = 72 h, read-out: % Inhibition des Pilzwachstums bei 50 μM
[7] = 168 h, read-out: % Inhibition der DON/AcDON produktion bei 50 μM

Compound	chromatographic logP [1]	pest or weed control at 500 ppm [2] [%]	pest or weed control at 500 ppm [3] [%]	inhibition at 50 µM [4, 6] [%]	inhibition at 50 µM [4, 7] [%]	inhibition at 50 µM ([5]; Fusarium proliferatum growth, OD 620, 5 days, read-out: % Inhibition des Pilzwachstums bei 50 μM) [%]	inhibition at 50 µM ([5]; Fusarium proliferatum, 5 days at 20° C., HPLC-MS/MS, read-out: % Inhibition der FB1 produktion bei 50 μM) [%]
CC(C)Cn1cc(-c2ccncc2-c2cccc(F)c2)c(-c2ccc(F)cc2)n1 [Compound 229]	3.13	95	94	0	97		
CCOC(=O)Nc1cc(-c2cn(CC(C)C)nc2-c2ccc(F)cc2)ccn1 [Compound 267]	3.11	95	98	59	97		
CCOCCn1cc(-c2ccnc(NC(=O)C(C)C)c2)c(-c2ccc(F)cc2)n1 [Compound 328]	2.32	95	100	101	100		
CC(C)Cn1cc(-c2ccnc(NC(=O)Cc3ccccc3)c2)c(-c2ccc(F)cc2)n1 [Compound 191]	3.54					1	96
CCC(=O)Nc1cc(-c2cn(OC(C)C)nc2-c2ccc(F)cc2)ccn1 [Compound 226]	2.58	95	95	85	100		
Cn1nc(-c2ccc(F)cc2O)c(-c2ccnc(NC(=O)C3CC3)c2)c1OC(F)F [Compound 258]	2.22	95	80	79	98		
CCC(C)C(=O)Nc1cc(-c2cn(C)nc2-c2ccc(F)cc2)ccn1 (centres unmarked) [Compound 348]	2.14	95	95				
CCn1cc(-c2ccnc(NC(=O)C(N)=O)c2)c(-c2ccc(F)cc2)n1 [Compound 351]	1.99	95	80				
COCC(C)Nc1nccc(-c2cn(CC(C)C)nc2-c2ccc(F)cc2)n1 (centres unmarked) [Compound 285]	2.39	95	89				
CC(C)Cn1cc(-c2ccnc(NC(C)(C)C)n2)c(-c2ccc(F)cc2)n1 [Compound 284]	2.94	100	91				
O=C(CC1CC1)Nc1cc(-c2cn(C3CC3)nc2-c2ccc(F)cc2)ccn1 [Compound 323]	2.48	95	86				
CCn1cc(-c2ccnc(NC(=O)[C@@H]3C[C@H]3c3ccccc3)c2)c(-c2ccc(F)cc2)n1 [Compound 337]	3.06	95	88				
CC(C)CC(=O)Nc1cc(-c2cn(C)nc2-c2ccc(F)cc2)ccn1 [Compound 347]	2.12	95	95				
CCOCCn1cc(-c2ccnc(NC(=O)CC)c2)c(-c2ccc(F)cc2)n1 [Compound 326]	2.01	95	94	107	100		
CCC(=O)Nc1cc(-c2cn(C3CC3)nc2-c2ccc(F)cc2)ccn1 [Compound 320]	1.97	95	94				
CSCCn1cc(-c2ccnc(NC(=O)C(C)C)c2)c(-c2ccc(F)cc2)n1 [Compound 306]	2.44	95	94				
CC(C)C(=O)Nc1cc(-c2cn(C(C)c3ccccc3F)nc2-c2ccc(F)cc2)ccn1 (centres unmarked) [Compound 232]	3.41	95	93	0	80		
CC(C)OC(=O)Nc1cc(-c2cn(C(C)C)nc2-c2ccc(F)cc2)ccn1 [Compound 181]	2.99	94	85				
CCC(=O)Nc1cc(-c2cn(C)nc2-c2ccc(F)cc2)ccn1 [Compound 296]	1.56	100	84				
CCn1cc(-c2ccnc(NC(=O)C3CC3C)c2)c(-c2ccc(F)cc2)n1 (centres unmarked) [Compound 341]	2.16	95	100				
CCCn1cc(-c2ccnc(NC(=O)COC)c2)c(-c2ccc(F)cc2)n1 [Compound 293]	2.58	100	94				

Compound	chromatographic logP [1]	pest or weed control at 500 ppm [2] [%]	pest or weed control at 500 ppm [3] [%]	inhibition at 50 µM [4, 6] [%]	inhibition at 50 µM [4, 7] [%]	inhibition at 50 µM ([5]; Fusarium proliferatum growth, OD 620, 5 days, read-out: % Inhibition des Pilzwachstums bei 50 μM) [%]	inhibition at 50 µM ([5]; Fusarium proliferatum, 5 days at 20° C., HPLC-MS/MS, read-out: % Inhibition der FB1 produktion bei 50 μM) [%]
CCC(C)C(=O)Nc1cc(-c2cn(CC)nc2-c2ccc(F)cc2)ccn1 (centres unmarked) [Compound 340]	2.42	95	95				
CCC(=O)Nc1cc(-c2c(-c3ccc(F)cc3)nn(C)c2OC(F)F)ccn1 [Compound 316]	2.33	100	75				
CC(C)C(=O)Nc1cc(-c2cn(C(C)C3CC3)nc2-c2ccc(F)cc2)ccn1 (centres unmarked) [Compound 307]	2.9	100	100				
CCn1cc(-c2ccnc(NC(=O)CC(C)C)c2)c(-c2ccc(F)cc2)n1 [Compound 339]	3.47	95	95				
CC(C)n1cc(-c2ccnc3[nH]cnc23)c(-c2ccc(F)cc2)n1 [Compound 280]	1.82	95	93				
CC(C)Cn1cc(-c2ccnc(NC3CC3)n2)c(-c2ccc(F)cc2)n1 [Compound 281]	2.41	95	94				
CCC(C)Nc1nccc(-c2cn(CC(C)C)nc2-c2ccc(F)cc2)n1 (centres unmarked) [Compound 286]	2.68	90	89				
CCC(=O)Nc1cc(-c2cn(C(C)CC#N)nc2-c2ccc(F)cc2)ccn1 (centres unmarked) [Compound 312]	1.87	100	100				
Cc1c(-c2ccncc2)c(-c2ccc(F)cc2)nn1CC(C)C [Compound 368]	2.07	95	94				
COCC(=O)Nc1cc(-c2cn(C)nc2-c2ccc(F)cc2)ccn1 [Compound 297]	1.89	100	90				
CC(C)C(=O)Nc1cc(-c2cn(CCC#N)nc2-c2ccc(F)cc2)ccn1 [Compound 309]	1.91	100	100				
CCC(=O)Nc1cc(-c2cn(CCC#N)nc2-c2ccc(F)cc2)ccn1 [Compound 303]	1.63	100	95				
CCCn1cc(-c2ccnc(NC(=O)C(C)C)c2)c(-c2ccc(F)cc2)n1 [Compound 294]	2.49	100	98				
CCCn1cc(-c2ccnc(NC(=O)CC3CC3)c2)c(-c2ccc(F)cc2)n1 [Compound 295]	2.66	100	94				
CC(C)n1cc(-c2ccnc(NC(=O)N(C)C)c2)c(-c2ccc(F)cc2)n1 [Compound 233]	1.6	90	95	100	100		
CCn1cc(-c2ccnc(NC(=O)CC3CC3)c2)c(-c2ccc(F)cc2)n1 [Compound 291]	2.29	100	95				
CCOCCn1cc(-c2ccnc(NC(=O)CC3CC3)c2)c(-c2ccc(F)cc2)n1 [Compound 329]	2.48	95	94	104	100		
Cc1c(-c2ccncc2)c(-c2ccc(F)cc2)nn1CC(F)F [Compound 367]	1.49	95	84				
COCC(=O)Nc1cc(-c2cn(CC3CC3(Cl)Cl)nc2-c2ccc(F)cc2)ccn1 (centres unmarked) [Compound 245]	3.22	94	88	95	99		
CCCn1cc(-c2ccnc(NC(=O)CC)c2)c(-c2ccc(F)cc2)n1 [Compound 292]	2.15	100	95				

From patent publication US20110183978A1, “Phenylpyri(mi)dinylazoles” (Bayer CropScience AG, priority 2009, published 2011)
